Reference: PubChem BioAssay AID1919017 (Molecular Pharmacology Branch, DTP, NCI, 2023)

Tested on: SW1271 complex spheroids with HUVEC/MSC, growth, % test/control
Assay: Anticancer human tumor SW1271 cell line growth inhibition [AhR];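 also: spheroids exposed to agents for 7 days before readout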
Details: for IC50: curve of first compound; for viability, T/C: stronger effect = lower value
Description: Multicellular complex tumor spheroid response to aryl hydrocarbon receptor antagonists in combination with a variety of drugs and investigational agents in selected tumor cell lines
The current study was undertaken to assess response to aryl hydrocarbon receptor antagonists in combination with standard-of-care drugs and investigational agents in solid tumor complex spheroid models. Complex spheroids include a stromal component modeled by human endothelial cells (HUVEC) and fibroblasts modeled by human mesenchymal stem cells (MSCs). The concentration ranges selected for each drug and investigational agent were based upon clinically achievable concentrations if the clinical Cmax of the agent was known.
Compounds. The drugs and investigational agents: BAY 2416964 (NSC825713), GNF351 (NSC835774), CH-223191 (NSC835775), CPI-455 (NSC825282), aza-TdCyd (NSC777586), decitabine (NSC127716), belinostat (NSC758774), entinostat (NSC756642), pevonedistat (NSC761192), tazemetostat (NSC777109), talazoparib (NSC765396), olaparib (NSC753686), selinexor (NSC780203), nedisertib (M3814, NSC802822), bortezomib (NSC756655), venetoclax (NSC766270), doxorubicin (NSC123127), elimusertib (BAY189344, NSC800525), ceralasertib (AZD6738, NSC777638), TAK-243 (NSC785004), alisertib (NSC759677), etoposide (NSC141540), topotecan (NSC609699), eribulin (NSC707389), gemcitabine (NSC613327), carboplatin (NSC241240), cisplatin (NSC119875), and SN-38 (NSC673596) were obtained from the National Cancer Institute (NCI) Developmental Therapeutics Program Chemical Repository (32). The FDA-approved anticancer drug set is available from the Developmental Therapeutics Program at https://dtp.cancer.gov/organization/dscb/obtaining/available plates.htm. […] The stock solutions were prepared in dimethyl sulfoxide (DMSO, Sigma-Aldrich, St. Louis, MO, cat. D2650), except for the platinum compounds which were prepared in saline (Quality Biological, Gaithersburg, MD, cat. 114-055-101), at 800-fold the tested concentration and stored at -70 degrees C prior to their use. All drugs and investigational agents were tested over a range starting from a high concentration at or near the clinical Cmax and decreasing in half-log increments. If the clinical Cmax for an agent had not been determined, the highest concentration tested was 10 microM (Table 1).
Cell Culture. All cells were maintained in an incubator at 37 degrees C and 5% CO2 with 95% humidity. The PDC lines were cultured according to standard operating procedures established by the NCI PDMR (https://pdmr.cancer.gov). Briefly, all PDCs were thawed and cultured in Matrigel-coated flasks prepared with a working solution of 1X Ham's F-12 nutrient mix, without supplementation (Invitrogen, Waltham, MA, cat. 11765054), 100 U/mL penicillin-streptomycin (Invitrogen, cat. 15140122), and 2.5% Matrigel (Corning Inc., Corning, NY, cat. 354248) for the first three passages. All PDCs were cultured in complete DMEM/F-12 media containing advanced DMEM/F-12 (Invitrogen, cat. 12634028), 4.9% defined fetal bovine serum, heat inactivated (HyClone Laboratories Inc., Logan, UT, cat. SH30070.03HI), 389 ng/mL hydrocortisone (Sigma-Aldrich, cat. H4001), 9.7 ng/mL human EGF recombinant protein (Invitrogen, cat. PHG0313), 23.4 microg/mL adenine (Sigma-Aldrich, cat. A2786), 97.3 U/mL penicillin-streptomycin (Invitrogen, cat. 15140122), 1.9 mM L-glutamine (Invitrogen, cat. 25030081), and 9.7 microM Y-27632 dihydrochloride (Tocris Bioscience, Bristol, United Kingdom, cat. 1254). The PDCs were cultured in complete DMEM/F12 media without 10 microM Y-27632 dihydrochloride for at least two passages prior to the screen. The established cell lines NCI-H1341 and […] were cultured in DMEM/F-12, HEPES (Invitrogen, cat. 11330032), 5% defined fetal bovine serum (HyClone Laboratories Inc., cat. SH30070.03), ITS premix universal culture supplement [insulin (5 microg/mL), transferrin (5 microg/mL), and selenious acid (5 ng/mL)] […]

Question: For CC(C)CC(NC(=O)C(Cc1ccccc1)NC(=O)c1cnccn1)B(O)O (stereo not given) + CC(CO)NC(=O)c1cc(-c2ccc(Cl)cc2)nn(-c2cnn(C)c2)c1=O, which IC50 (second compound 0.1 µM) is on record?
Answer: 4.95 nM

Question: And the IC50 (second compound 0.316 µM)?
Answer: 5.08 nM

Question: And the IC50 (second compound 1 µM)?
Answer: 5.33 nM

Question: What about the IC50 (second compound 3.16 µM) of the same molecule?
Answer: 4.77 nM

Question: What about the IC50 (second compound 10 µM) of the same molecule?
Answer: 4.41 nM

Question: What about the viability, T/C (second compound 0.1 µM, first compound 0.000949 µM) of the same molecule?
Answer: 116%

Question: And the viability, T/C (second compound 0.1 µM, first compound 0.003 µM)?
Answer: 86.6%

Question: What about the viability, T/C (second compound 0.1 µM, first compound 0.00949 µM) of the same molecule?
Answer: 2.31%

Question: And the viability, T/C (second compound 0.1 µM, first compound 0.03 µM)?
Answer: 0.27%

Question: What about the viability, T/C (second compound 0.1 µM, first compound 0.0949 µM) of the same molecule?
Answer: 0.34%

Question: What about the viability, T/C (second compound 0.1 µM, first compound 0.3 µM) of the same molecule?
Answer: 0.41%

Question: What about the viability, T/C (second compound 0.316 µM, first compound 0.000949 µM) of the same molecule?
Answer: 92.5%

Question: What about the viability, T/C (second compound 0.316 µM, first compound 0.003 µM) of the same molecule?
Answer: 88.3%

Question: And the viability, T/C (second compound 0.316 µM, first compound 0.00949 µM)?
Answer: 4.62%

Question: What about the viability, T/C (second compound 0.316 µM, first compound 0.03 µM) of the same molecule?
Answer: 0.41%

Question: And the viability, T/C (second compound 0.316 µM, first compound 0.0949 µM)?
Answer: 0.43%

Question: What about the viability, T/C (second compound 0.316 µM, first compound 0.3 µM) of the same molecule?
Answer: 0.4%

Question: And the viability, T/C (second compound 1 µM, first compound 0.000949 µM)?
Answer: 99.9%

Question: And the viability, T/C (second compound 1 µM, first compound 0.003 µM)?
Answer: 97.5%

Question: What about the viability, T/C (second compound 1 µM, first compound 0.00949 µM) of the same molecule?
Answer: 2.34%

Question: What about the viability, T/C (second compound 1 µM, first compound 0.03 µM) of the same molecule?
Answer: 0.34%

Question: And the viability, T/C (second compound 1 µM, first compound 0.0949 µM)?
Answer: 0.31%

Question: And the viability, T/C (second compound 1 µM, first compound 0.3 µM)?
Answer: 0.55%

Question: What about the viability, T/C (second compound 3.16 µM, first compound 0.000949 µM) of the same molecule?
Answer: 66.9%

Question: And the viability, T/C (second compound 3.16 µM, first compound 0.003 µM)?
Answer: 96.6%

Question: What about the viability, T/C (second compound 3.16 µM, first compound 0.00949 µM) of the same molecule?
Answer: 3.1%

Question: What about the viability, T/C (second compound 3.16 µM, first compound 0.03 µM) of the same molecule?
Answer: 0.44%

Question: And the viability, T/C (second compound 3.16 µM, first compound 0.0949 µM)?
Answer: 0.3%

Question: And the viability, T/C (second compound 3.16 µM, first compound 0.3 µM)?
Answer: 0.38%

Question: What about the viability, T/C (second compound 10 µM, first compound 0.000949 µM) of the same molecule?
Answer: 73.6%

Question: And the viability, T/C (second compound 10 µM, first compound 0.003 µM)?
Answer: 75.2%

Question: What about the viability, T/C (second compound 10 µM, first compound 0.00949 µM) of the same molecule?
Answer: 1.45%

Question: What about the viability, T/C (second compound 10 µM, first compound 0.03 µM) of the same molecule?
Answer: 0.5%

Question: What about the viability, T/C (second compound 10 µM, first compound 0.0949 µM) of the same molecule?
Answer: 0.51%

Question: And the viability, T/C (second compound 10 µM, first compound 0.3 µM)?
Answer: 0.39%
